Measurements from patent US20060116400A1, “Oxazolidinone and/or isoxazoline derivatives as antibacterial agents” (AstraZeneca AB, priority 2002, published 2006).

| Compound | melting point |
| --- | --- |
| CC(C)C(OC(=O)Cc1ccc2ccccc2c1)C1CC(c2ccc(-c3ccc(N4C[C@H](Cn5ccnn5)OC4=O)cc3F)cn2)=NO1 (single isomer, unassigned) [Example 30] | 85 °C |
| CC(C)C(O)C1CC(c2ccc(-c3ccc(N4C[C@H](Cn5ccnn5)OC4=O)cc3F)cn2)=NO1 (single isomer, unassigned) [Example 32] | 155 °C |
| CC(C)(C)OC(=O)C1CC(c2ccc(-c3ccc(N4C[C@H](Cn5ccnn5)OC4=O)cc3F)cn2)=NO1 (stereo partly drawn) [Example 21] | 165 to 168 °C |
| CN(C)C(=O)C1CC(c2ccc(-c3ccc(N4C[C@H](Cn5ccnn5)OC4=O)cc3F)cn2)=NO1 (stereo partly drawn) [Example 23, 3-(5-{2-Fluoro-4-[(5R)-2-oxo-5-(1H-1,2,3-triazol-1-ylmethyl)-1,3-oxazolidin-3-yl]phenyl}pyridin-2-yl)-N,N-dimethyl-4,5-dihydroisoxazole-5-carboxamide] | 180 to 190 °C |
| CNC(=O)C1CC(c2ccc(-c3ccc(N4C[C@H](Cn5ccnn5)OC4=O)cc3F)cn2)=NO1 (stereo partly drawn) [Example 24, 3-(5-{2-Fluoro-4-[(5R)-2-oxo-5-(1H-1,2,3-triazol-1-ylmethyl)-1,3-oxazolidin-3-yl]phenyl}pyridin-2-yl)-N-methyl-4,5-dihydroisoxazole-5-carboxamide] | 185 to 195 °C |
| O=C1O[C@@H](Cn2ccnn2)CN1c1ccc(-c2ccc(C3=NOC(C4(O)CCCC4)C3)nc2)c(F)c1 (stereo partly drawn) [Example 28, (5R)-3-(3-Fluoro-4-{6-[5-(1-hydroxycyclopentyl)-4,5-dihydroisoxazol-3-yl]pyridin-3-yl}phenyl)-5-(1H-1,2,3-triazol-1-ylmethyl)-1,3-oxazolidin-2-one] | 225 °C |
| CN1CCC(O)(C2CC(c3ccc(-c4ccc(N5C[C@H](Cn6ccnn6)OC5=O)cc4F)cn3)=NO2)CC1 (stereo partly drawn) [Example 34, (5R)-3-(3-Fluoro-4-{6-[5-(4-hydroxy-1-methylpiperidin-4-yl)-4,5-dihydroisoxazol-3-yl]pyridin-3-yl}phenyl)-5-(1H-1,2,3-triazol-1-ylmethyl)-1,3-oxazolidin-2-one] | 73 °C |

Next, values leading:

| melting point | Compound |
| --- | --- |
| 182 °C | O=C1O[C@@H](Cn2ccnn2)CN1c1ccc(-c2ccc(C3=NOC(C(O)c4ccccc4)C3)nc2)c(F)c1 (single isomer, unassigned) [Example 26] |
| 197 °C | CC(C)(O)C1CC(c2ccc(-c3ccc(N4C[C@H](Cn5ccnn5)OC4=O)cc3F)cn2)=NO1 (stereo partly drawn) [Example 15, (5R)-3-(3-Fluoro-4-{6-[5-(1-hydroxy-1-methylethyl)-4,5-dihydroisoxazol-3-yl]pyridin-3-yl}phenyl)-5-(1H-1,2,3-triazol-1-ylmethyl)-1,3-oxazolidin-2-one] |
| 190 to 194 °C | O=C(O)C1CC(c2ccc(-c3ccc(N4C[C@H](Cn5ccnn5)OC4=O)cc3F)cn2)=NO1 (stereo partly drawn) [Example 22, 3-(5-{2-Fluoro-4-[(5R)-2-oxo-5-(1H-1,2,3-triazol-1-ylmethyl)-1,3-oxazolidin-3-yl]phenyl}pyridin-2-yl)-4,5-dihydroisoxazole-5-carboxylic acid] |
| 210 °C | O=C1O[C@@H](Cn2ccnn2)CN1c1ccc(-c2ccc(C3=NOC(CS(=O)(=O)CCO)C3)nc2)c(F)c1 (stereo partly drawn) [Example 25, (5R)-3-{3-Fluoro-4-[6-(5-{[(2-hydroxyethyl)sulfonyl]methyl}-4,5-dihydroisoxazol-3-yl)pyridin-3-yl]phenyl}-5-(1H-1,2,3-triazol-1-ylmethyl)-1,3-oxazolidin-2-one] |
| 181 °C | O=C1O[C@@H](Cn2ccnn2)CN1c1ccc(-c2ccc(C3=NOC(CNCCc4ccncc4)C3)nc2)c(F)c1 (stereo partly drawn) [Example 33, (5R)-3-{3-Fluoro-4-[6-(5-{[(2-pyridin-4-ylethyl)amino]methyl}-4,5-dihydroisoxazol-3-yl)pyridin-3-yl]phenyl}-5-(1H-1,2,3-triazol-1-ylmethyl)-1,3-oxazolidin-2-one] |
